What was measured:
Type in all cases: functional
[1] = test system: Rattus norvegicus; test: Evolution of glycemia 2 hr after first administration at the dose of 200 mg/kg in rat
[2] = test system: Rattus norvegicus; test: Evolution of glycemia 2 hr after first administration at the dose of 20 mg/kg in rat
[3] = test system: Rattus norvegicus; test: Evolution of glycemia 2 hr after the last administration for 4 days chronic treatment at the dose of 200 mg/kg in rat
[4] = test system: Rattus norvegicus; test: Evolution of glycemia 2 hr after the last administration for 4 days chronic treatment at the dose of 20 mg/kg in rat

Compound	Glyceamia evolution [1] [%]	Glyceamia evolution [2] [%]	Glyceamia evolution [3] [%]	Glyceamia evolution [4] [%]
O=C(O)c1c[nH]nc1OCc1ccccc1	-1	1	-15	-24
COc1nn(Cc2ccc(-c3ccccc3C#N)cc2)cc1C(=O)O	1	-5	-3	-10
N#Cc1ccccc1-c1ccc(Cn2cc(C(=O)O)c(OCc3ccccc3)n2)cc1	-4	-5	-3	-10
COc1nn(C)cc1C(=O)O	-5	-7	-10	-10
Cn1cc(C(=O)O)c(OCc2ccccc2)n1	-5	-4	-4	2
C=CCn1cc(C(=O)O)c(OC)n1	5	3	6	1
O=C(O)c1cn(Cc2nn[nH]n2)nc1OCc1ccccc1	-2	0	-7	-7
COc1nn(CC=C(C)C)cc1C(=O)O	-8	3	-11	-3
N#Cc1ccccc1-c1ccc(COc2n[nH]cc2C(=O)O)cc1	0	-7	-5	-11
COC(=O)CCn1cc(C(=O)O)c(OCc2ccccc2)n1	-13	-3	-3	-7
CCOC(=O)Cn1cc(C(=O)O)c(OCc2ccccc2)n1	0	-8	-3	-6
COc1[nH]ncc1C(=O)O	-4	-19	-8	-20
Cn1cc(C(=O)O)c(=O)[nH]1	-12	0	-16	-12
O=C(CCn1cc(C(=O)O)c(OCc2ccccc2)n1)Nc1ccc(Cl)cc1	-19	-16	-19	-10
CCOC(=O)CCCn1cc(C(=O)O)c(OCc2ccccc2)n1	-1	-1	-6	-3
O=C(O)c1c[nH]nc1O	7	-12	2	-9
O=C(O)c1cn(Cc2ccccc2)nc1OCc1ccccc1	-14	-6	-9	-5
CN(C)C(=N)NC(=N)N [METFORMIN]	-24		-24	

Reference: ChEMBL document CHEMBL1134855, “Synthesis and hypoglycemic evaluation of substituted pyrazole-4-carboxylic acids” (2002)
